Among the data in PMC5908784, “Extracellular loops 2 and 3 of the calcitonin receptor selectively modify agonist binding and efficacy” (Biochemical Pharmacology, 2018) are Emax values, retold here.

Where a chain is given by its changes, count along the chain named.

In general, Emax refers to the size of the effect at its maximum, as opposed to the concentration needed.

Common to all, as to assay: cAMP accumulation
Common to all, as to type: cell-based
Conditions in all cases: cAMP maximal response, mean ± S.E.M., SEM
On the technique in general: Cyclic AMP is a second messenger, typically raised through Gs and lowered through Gi signalling.

For one test, the target named is T1, hCTR F356A (Homo sapiens, UniProt P30988, F356A).
T1 construct: c-Myc (N); expressed in transfected cells
T1 sequence (P30988 25-474 F356A): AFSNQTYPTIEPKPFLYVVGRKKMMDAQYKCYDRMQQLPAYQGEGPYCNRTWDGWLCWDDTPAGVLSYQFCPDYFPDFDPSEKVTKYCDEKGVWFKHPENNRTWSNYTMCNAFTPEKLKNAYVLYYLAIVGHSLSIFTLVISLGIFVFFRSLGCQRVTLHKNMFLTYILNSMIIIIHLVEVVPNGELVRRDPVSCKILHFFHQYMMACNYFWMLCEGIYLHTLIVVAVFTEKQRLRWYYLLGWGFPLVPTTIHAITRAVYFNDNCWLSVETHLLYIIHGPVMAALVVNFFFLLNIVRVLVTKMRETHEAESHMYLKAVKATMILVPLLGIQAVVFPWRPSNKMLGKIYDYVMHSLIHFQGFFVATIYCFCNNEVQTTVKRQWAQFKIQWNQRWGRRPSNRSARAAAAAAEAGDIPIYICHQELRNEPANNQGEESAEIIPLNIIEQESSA
The method in brief:
(§1)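 Read-out: cAMP accumulated over 30 min of graded ligand exposure in IBMX-containing medium, expressed relative to 100 μM forskolin. Potency (EC50) and maximal effect (Emax) derive from 3-parameter logistic concentration-response curves.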

In a further test the target is T2, hCTR L368A (Homo sapiens, UniProt P30988, L368A).
T2 construct: c-Myc (N); expressed in transfected cells
T2 sequence (P30988 25-474 L368A): T1 sequence (P30988 25-474 F356A) with A332F, L344A
In short, it runs like this: as §1

In another test the target is T3, hCTR Y284A (Homo sapiens, UniProt P30988, Y284A).
T3 construct: expressed in transfected cells
T3 sequence (P30988 25-474 Y284A): T1 sequence (P30988 25-474 F356A) with Y260A, A332F
The method in brief: as §1

The target in the next test is T4, hCTR I279A (Homo sapiens, UniProt P30988, I279A).
T4 construct: expressed in transfected cells
T4 sequence (P30988 25-474 I279A): T1 sequence (P30988 25-474 F356A) with I255A, A332F
The method in brief:
as §1

A further test has as its target T5, hCTR L291A (Homo sapiens, UniProt P30988, L291A).
T5 construct: expressed in transfected cells
T5 sequence (P30988 25-474 L291A): T1 sequence (P30988 25-474 F356A) with L267A, A332F
In short, it runs like this:
as §1

For the molecule `CC(C)C[C@H](NC(=O)[C@H](CCCCN)NC(=O)CNC(=O)[C@H](CC(C)C)NC(=O)[C@@H](NC(=O)[C@@H]1CSSC[C@H](N)C(=O)N[C@@H](CO)C(=O)N[C@@H](CC(N)=O)C(=O)N[C@@H](CC(C)C)C(=O)N[C@@H](CO)C(=O)N[C@@H]([C@@H](C)O)C(=O)N1)C(C)C)C(=O)N[C@@H](CO)C(=O)N[C@@H](CCC(N)=O)C(=O)N[C@@H](CCC(=O)O)C(=O)N[C@@H](CC(C)C)C(=O)N[C@@H](Cc1c[nH]cn1)C(=O)N[C@@H](CCCCN)C(=O)N[C@@H](CC(C)C)C(=O)N[C@@H](CCC(N)=O)C(=O)N[C@H](C(=O)N[C@@H](Cc1ccc(O)cc1)C(=O)N1CCC[C@H]1C(=O)N[C@@H](CCCNC(=N)N)C(=O)N[C@H](C(=O)N[C@@H](CC(N)=O)C(=O)N[C@H](C(=O)NCC(=O)N[C@@H](CO)C(=O)NCC(=O)N[C@H](C(=O)N1CCC[C@H]1C(N)=O)[C@@H](C)O)[C@@H](C)O)[C@@H](C)O)[C@@H](C)O` [sCT], the Emax amounted to 100 ± 1% on hCTR F356A; 75 ± 7% on hCTR L368A; 111 ± 11% at hCTR Y284A; 90 ± 6% on hCTR I279A; 108 ± 4% on hCTR L291A.
